According to PubChem BioAssay (NCI):
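Results reflect a 48-hour exposure of cells in 96-well plates to compound at five concentrations. GI50: concentration for 50% inhibition of growth. The concentration for full growth arrest is given as TGI.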

Key:
Assay in all cases: NCI tumour cell line growth inhibition, 48 h
[1] = system: SK-OV-3 ovarian
[2] = system: OVCAR-5 ovarian
[3] = system: M14 melanoma
[4] = system: CCRF-CEM leukemia
[5] = system: OVCAR-3 ovarian
[6] = system: U251 CNS
[7] = system: NCI-H226 lung
[8] = system: T-47D breast
[9] = system: NCI-H23 lung
[10] = system: HS 578T breast

SMILES | GI50 [1] [µM] | TGI [1] [µM] | GI50 [2] [µM] | TGI [2] [µM] | GI50 [3] [µM] | TGI [3] [µM] | GI50 [4] [µM] | TGI [4] [µM] | GI50 [5] [µM] | TGI [5] [µM] | GI50 [6] [µM] | TGI [6] [µM] | GI50 [7] [µM] | TGI [7] [µM] | GI50 [8] [µM] | TGI [8] [µM] | GI50 [9] [µM] | TGI [9] [µM] | GI50 [10] [µM] | TGI [10] [µM]
CN(C)CCOc1cccc(NC2=C(Cl)C(=O)C(Nc3cccc(OCCN(C)C)c3)=C(Cl)C2=O)c1 | 11.3 | 23.4 | 1.84 | 3.4 | 1.14 | 2.53 | 0.256 | 0.932 | 0.18 | 0.334 | 1.47 | 2.93 | 1.81 | 3.93 | 0.189 | 0.453 | 0.323 | 1.35 |  | 
Nc1nn(C(=O)Nc2ccc(Cc3ccccc3)cc2)c2ccccc12 | 36.9 | > 100 | 31.3 | > 100 | 0.772 | > 100 |  |  | 6.23 | 63.1 | 13.9 | 30.2 | 13.5 | 58.3 | 1.55 | > 100 | 16.8 | 83.5 | 17.2 | 71.8
N=C(N)c1ccc(-c2ccc(-c3ccco3)o2)cc1F | 3.2 | 11.5 | 2.7 | 10.3 | 1.88 | 3.76 | 2.77 | 8.16 | 3.06 | 9.77 | 1.72 | 3.55 | 2.61 | 13.6 | 2.05 | 5.54 |  |  | 1.53 | 4.7
COc1cc2c(/C=C3/C(=O)Nc4c3ccc3ccccc43)c(Cl)[nH]c2cc1C | 0.0364 | > 50 | 10.2 | > 50 | 0.0119 | 0.032 |  |  | 0.00854 | 0.0294 | 0.0559 | 9.94 | 0.249 | 33.2 | > 50 | > 50 | 0.0152 | 4.59 | 0.289 | 
